{"source": "patent US10864168B2", "about": "“Bioactive delivery vehicles” (The Regents of the University of California, priority 2014, dated 2020)", "type_in_all_cases": "physicochemical", "key": {"E. coli (BL21)": {"test_system": "E. coli (BL21)", "experiment": "Encapsulation efficiency into bacteria by vacuum infusion", "conditions": "vacuum infused, 35% ethanol"}, "Chlorella sorokiniana": {"test_system": "Chlorella sorokiniana", "experiment": "Encapsulation of curcumin in algae cells using pressure assisted encapsulation", "conditions": "vacuum sealing, 5% ethanol, 50 mg cells", "source_text": "(§1) Briefly, 1 gm of yeast or algal cells pellet is suspended in the 35% ethanolic solution of the selected bioactive compound. […] We have determined the % ethanol to achieve sufficient encapsulation of the selected encapsulated bioactive compounds using both the vacuum and high pressure assisted encapsulation process. Yeast or algal cell samples suspended in the ethanolic solution with the bioactive compound are sealed in boilable vacuum bags (Prime Source) at 99% vacuum (Ultravac 250, Koch Equipment LLC). […] The sealed samples are covered with aluminum foil to prevent any photo-degradation of the bioactives and incubated at room temperature (25° C.) for 10 minutes. Samples are emptied into 50 mL centrifuge tubes, centrifuged at 2200 rpm for 10 minutes to pellet the cells and the pelleted cells are washed twice with ethanolic solution (35%) and then five times with excess water to remove unencapsulated bioactives. Cells are sonicated to disrupt the cellular structure. […] The concentration of bioactive compound dissolved in the organic phase is measured using UV-vis spectrophotometer. […] The encapsulation efficiency is determined as follows: [formula] where CE is the mass of extracted bioactive from the cells after encapsulation and CT is the amount of bioactive initially added to the cells. […]"}, "Chlorella minutissima": {"test_system": "Chlorella minutissima", "experiment": "Encapsulation of curcumin in algae cells using pressure assisted encapsulation", "conditions": "vacuum sealing, 5% ethanol, 100 mg cells", "source_text": "as §1"}}, "data": [{"smiles": "COc1cc(/C=C/C(=O)CC(=O)/C=C/c2ccc(O)c(OC)c2)ccc1O", "note": "[Curcumin, curcumin]", "values": [{"measurement": "Mass of Encapsulated Bioactive in Bacteria", "setting": "E. coli (BL21)", "value": 0.489, "unit": "mg/g"}, {"measurement": "Mass of Encapsulated Bioactive in Algae", "setting": "Chlorella sorokiniana", "value": 0.355, "unit": "mg/g"}, {"measurement": "Mass of Encapsulated Bioactive in Algae", "setting": "Chlorella minutissima", "value": 0.184, "unit": "mg/g"}]}]}
